Test results reported in patent US20220257722A1, “COMPOSITIONS AND METHODS OF TREATING AND PREVENTING SYSTEMIC COMPLICATIONS OF ACUTE ILLNESS” (United States Government As Represented By The Department …, priority 2019, published 2022).

System: rat small intestine
Assay: LPS-induced small intestinal FD4 paracellular permeability in vivo (PV and arterial FD4)
Details: for TDG-induced inhibitory effect on PV FD4 levels: LPS 6 hr + TDG 6 hr; for TDG-induced inhibitory effect on PV FD4 levels / Arterial FD4 levels in LPS 6 hr + TDG 6 hr rats: inhibitor iv at t=-10 min or co-perfused; for Arterial FD4 levels in LPS 6 hr + TDG 6 hr rats: t=90 min
Procedure: LPS treatment. Animals were treated with LPS (5 mg/kg, ip) once at 9 am. For the acute experiments, the animals were fasted overnight and were treated with LPS 1, 3, or 6 hr before the anesthesia for small intestinal perfusion of FD4 as described herein. For the 24-hr experiments, the animals fed ad libitum were treated with LPS 24 hr before anesthesia induction used for the perfusion study. As a control, saline was injected ip at the corresponding time before the experiments. The animal groups were expressed as control, LPS 1 hr, LPS 3 hr, LPS 6 hr, and LPS 24 hr.
Small intestinal perfusion. The small intestinal perfusion from the duodenum, and portal vein (PV) cannulation were prepared by the modified methods. Under isoflurane anesthesia (2%), the animal was placed […] on a recirculating heating block system (Summit Medical Systems, Bend, Oreg., USA) in order to maintain body temperature at 36-37° C. Prewarmed saline was infused via the right femoral vein at 1.08 ml/h using a Harvard infusion pump (Harvard Apparatus, Holliston, Mass., USA). The abdomen was incised, and the PV was cannulated with a polyethylene (PE)-50 tube attached with 23G needle and fixed by methylacrylate adhesive at the insertion site. The tube was filled with heparinized saline enabling repeated blood sampling. Samples of 0.2 ml PV blood were collected every 15 min, followed by flushing with 0.2 ml heparinized saline. A polyethylene tube (diameter 5 mm) filled with PBS was inserted through the forestomach and tied at 0.5 cm caudal from the pyloric ring. After bolus perfusion of 2-ml phosphate buffer saline (PBS, 10 mM, pH 7.4) into the duodenum from the tube, followed by stabilization for ˜30 min, the time was set as t=0. FD4 (0.1 mM) in 10-ml PBS was slowly perfused at t=0 min for 30 sec. Blood samples were collected into a 0.5-ml tubes containing 1-μl each of EDTA (0.5 M) and the dipeptidyl peptidase-4 (DPP4) inhibitor NVP-728 (1 mM), and immediately centrifuged at 5,000× g for 5 min, after which the plasma was stored on ice or at −80 ° C. until use. At 90 min, after collection of PV samples, arterial blood was taken from abdominal aorta, followed by euthanasia by thoracotomy.
Appearance of FD4 into the PV and arterial plasma was assessed by fluorescence intensity measurement using a multi-mode microplate reader (Synergy-2, BioTek Instruments, Inc., Winooski, VT, USA). Fluorescence intensity in t=0 sample as background was subtracted from the fluorescence values measured in other time point samples. FD4 content was calculated according to the standard curve generated each time of measurement.
Drug treatment for the intestinal perfusion study. The following drugs were administered at the time after LPS treatment: the GLP2R partial agonist/antagonist GLP-2(3-33) (1 mg/kg; 280 nmol/kg, ip) was given immediately after LPS treatment (0 hr after LPS treatment); GLP-2 (380 μg/kg; 100 nmol/kg, ip) was given 6 hr after LPS treatment; a stable GLP-2 analog TDG (50 μg/kg; 13.3 nmol/kg) was ip injected 0, 3, 6, or 12 hr after LPS treatment or iv injected at t=0 min just before the perfusion of FD4 solution (6 or 24 hr after LPS treatment). In acute experiments, TDG was iv injected at t=0 min (6 hr after LPS treatment) with or without the pretreatment of the selective IGF1 receptor (IGF1R) tyrosine kinase inhibitor AEW541 (0.1 mg/kg, iv), the selective EGF receptor (EGFR) tyrosine kinase inhibitor PD153035 (10 μg/kg, iv) or PG97-269 (1 mg/kg, iv) at t=−10 min, or the co-perfusion of L-NAME (0.1 mM, pf) with FD4 solution.

## COC(=O)[C@@H](N)CCCNC(=N)N[N+](=O)[O-] [L-NAME, Nω-nitro-L-arginine methyl ester]
L-NAME 0.1 mM alone co-perfused with FD4, no TDG
  LPS-induced increases in PV FD4 levels at 6 hr: no effect
  TDG-induced inhibitory effect on PV FD4 levels: reversed
  Arterial FD4 levels in LPS 6 hr + TDG 6 hr rats: reduced

## CC[C@H](C)[C@H](NC(=O)[C@H](Cc1ccccc1)NC(=O)[C@H](CC(=O)O)NC(=O)[C@H](CCCNC(=N)N)NC(=O)[C@H](C)NC(=O)[C@H](C)NC(=O)[C@H](CC(C)C)NC(=O)[C@H](CC(N)=O)NC(=O)[C@H](CC(=O)O)NC(=O)[C@H](CC(C)C)NC(=O)[C@@H](NC(=O)[C@@H](NC(=O)[C@H](CC(N)=O)NC(=O)[C@H](CCSC)NC(=O)[C@H](CCC(=O)O)NC(=O)[C@H](CC(=O)O)NC(=O)[C@H](CO)NC(=O)[C@H](Cc1ccccc1)NC(=O)[C@H](CO)NC(=O)CNC(=O)[C@H](CC(=O)O)NC(=O)CNC(=O)[C@@H](N)Cc1c[nH]cn1)[C@@H](C)O)[C@@H](C)CC)C(=O)N[C@@H](CC(N)=O)C(=O)N[C@@H](Cc1c[nH]c2ccccc12)C(=O)N[C@@H](CC(C)C)C(=O)N[C@H](C(=O)N[C@@H](CCC(N)=O)C(=O)N[C@H](C(=O)N[C@@H](CCCCN)C(=O)N[C@H](C(=O)N[C@H](C(=O)N[C@@H](CC(=O)O)C(=O)O)[C@@H](C)O)[C@@H](C)CC)[C@@H](C)O)[C@@H](C)CC [TDG]
LPS 6 hr model, TDG 50 μg/kg ip 3 hr after LPS
  PV FD4 levels: reduced
LPS 6 hr model, TDG 50 μg/kg iv 6 hr after LPS (t=0 min)
  PV FD4 levels: reduced
LPS 24 hr model, TDG 0 hr after LPS
  arterial FD4 levels: no significant effect
LPS 24 hr model, TDG 50 μg/kg ip 0 hr after LPS
  PV FD4 levels: little effect
LPS 24 hr model, TDG 50 μg/kg ip 6 hr after LPS
  PV FD4 levels: reduced
LPS 24 hr model, TDG 50 μg/kg ip 12 hr after LPS
  PV FD4 levels: reduced
LPS 24 hr model, TDG 50 μg/kg iv 24 hr after LPS
  PV FD4 levels: little effect
LPS 24 hr model, TDG 6 hr after LPS
  arterial FD4 levels: inhibited
LPS 24 hr model, TDG 12 hr after LPS
  arterial FD4 levels: inhibited
LPS 24 hr model, TDG 24 hr after LPS
  arterial FD4 levels: no significant effect

## [Ac-His^1, D-Phe^2, Lys^15, Arg^16, Leu^27]-VIP(1-7)-GRF(8-27) (HFDAVFTNSYRKVLKRLSARKLLQDIL; HELM PEPTIDE1{[ac].H.[dF].D.A.V.F.T.N.S.Y.R.K.V.L.K.R.L.S.A.R.K.L.L.Q.D.I.L.[am]}$$$$V2.0; SMILES CC[C@H](C)[C@H](NC(=O)[C@H](CC(=O)O)NC(=O)[C@H](CCC(N)=O)NC(=O)[C@H](CC(C)C)NC(=O)[C@H](CC(C)C)NC(=O)[C@H](CCCCN)NC(=O)[C@H](CCCNC(=N)N)NC(=O)[C@H](C)NC(=O)[C@H](CO)NC(=O)[C@H](CC(C)C)NC(=O)[C@H](CCCNC(=N)N)NC(=O)[C@H](CCCCN)NC(=O)[C@H](CC(C)C)NC(=O)[C@@H](NC(=O)[C@H](CCCCN)NC(=O)[C@H](CCCNC(=N)N)NC(=O)[C@H](Cc1ccc(O)cc1)NC(=O)[C@H](CO)NC(=O)[C@H](CC(N)=O)NC(=O)[C@@H](NC(=O)[C@H](Cc1ccccc1)NC(=O)[C@@H](NC(=O)[C@H](C)NC(=O)[C@H](CC(=O)O)NC(=O)[C@@H](Cc1ccccc1)NC(=O)[C@H](Cc1c[nH]cn1)NC(C)=O)C(C)C)[C@@H](C)O)C(C)C)C(=O)N[C@@H](CC(C)C)C(N)=O) [PG97-269]
  TDG-induced inhibitory effect on PV FD4 levels: reversed
  Arterial FD4 levels in LPS 6 hr + TDG 6 hr rats: reduced
